IC50 data for 35 compounds are collected here from patent US20250186391A1, “ORAL COMPLEMENT FACTOR D INHIBITORS” (BioCryst Pharmaceuticals, Inc., priority 2019, published 2025).

Structures are written as SMILES.

Factor D, sequence (P00746 26-253): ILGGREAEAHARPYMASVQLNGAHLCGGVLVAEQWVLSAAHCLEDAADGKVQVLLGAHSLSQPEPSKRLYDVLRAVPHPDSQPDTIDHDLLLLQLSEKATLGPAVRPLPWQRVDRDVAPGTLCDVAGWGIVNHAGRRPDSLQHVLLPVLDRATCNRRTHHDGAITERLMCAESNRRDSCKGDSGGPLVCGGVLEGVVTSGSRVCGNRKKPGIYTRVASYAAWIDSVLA

The target of the assay is Factor D (Homo sapiens (Human), UniProt P00746). Nature of the assay: Factor D esterolytic assay. In kind it is biochemical. The following applies: Z-Lys-SBzl substrate, 100 mM HEPES, 500 mM NaCl, pH 7.5, 10% DMSO; tested a minimum of three times; read-out: Measured Ki (IC50) Value for Compounds: IC50. The method, boiled down:
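Buffer was 100 mM HEPES, 500 mM NaCl, pH 7.5 with 10% DMSO. Compound and Factor D were combined, then Z-Lys-SBzl (1.29 mM) was added either at once or following room-temperature incubation. Rates came from DTNB colour at 405 nm minus 690 nm over 600 s, with percent inhibition giving IC50 over at least three tests.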
By IC50 is commonly meant the concentration needed to halve the response being measured. As for `CC(C)n1nc(COc2ccccc2CC(=O)O)c2cc(-c3cc(CN)cc(C4CCOCC4)c3)ccc21` [Compound 332e, 2-(2-((5-(3-(aminomethyl)-5-(tetrahydro-2H-pyran-4-yl)phenyl)-1-isopropyl-1H-indazol-3-yl)methoxy)phenyl)acetic acid], the IC50 was over 10000 nM. For `COc1ccc(CC(=O)O)c(OCc2c3cc(-c4cccc(CN)c4)ccc3nn2C(C)C)c1` [Compound 255c, 2-(2-((5-(3-(aminomethyl)phenyl)-2-isopropyl-2H-indazol-3-yl)methoxy)-4-methoxyphenyl)acetic acid] the value was under 1000 nM.

As to `NCc1cccc(-c2cc3c(COc4ccccc4CC(=O)O)csc3c3occc23)c1` [Compound 232h, 2-(2-((4-(3-(aminomethyl)phenyl)thieno[3,2-g]benzofuran-6-yl)methoxy)phenyl)acetic acid], the IC50 was under 1000 nM. As for `NCc1cccc(-c2cc3c(COc4ccccc4CC(=O)O)cccc3o2)c1` [Compound 282f, 2-(2-((2-(3-(aminomethyl)phenyl)benzofuran-4-yl)methoxy)phenyl)acetic acid], the concentration for half-maximal inhibition (IC50) is under 1000 nM. For `COc1c(-c2cc3c(COc4ccccc4CC(=O)O)cccc3o2)ccnc1CN` [Compound 329d, 2-(2-((2-(2-(aminomethyl)-3-methoxypyridin-4-yl)benzofuran-4-yl)methoxy)phenyl)acetic acid] the value was 1000 to 10000 nM; for `NCc1cccc(-c2cccc3cc(COc4ccccc4CCC(=O)O)oc23)c1` [Compound 35c, 3-(2-((7-(3-(aminomethyl)phenyl)benzofuran-2-yl)methoxy)phenyl)propanoic acid], over 10000 nM; for `NCc1cccc(-c2ccc3occ(COc4ccc(F)cc4CC(=O)O)c3c2)c1F` [Compound 45b, 2-(2-((5-(3-(aminomethyl)-2-fluorophenyl)benzofuran-3-yl)methoxy)-5-fluorophenyl)acetic acid], under 1000 nM.

`NCc1cccc(-c2cccc3cc(COc4cccc(CC(=O)O)c4)oc23)c1` [Compound 34c, 2-(3-((7-(3-(aminomethyl)phenyl)benzofuran-2-yl)methoxy)phenyl)acetic acid]: the IC50 is over 10000 nM.

As for `COc1ccc(CC(=O)O)c(OCc2c(C)oc3ccc(-c4cccc([C@H](C)N)c4)cc23)c1` [Compound 240b, (S)-2-(2-((5-(3-(1-aminoethyl)phenyl)-2-methylbenzofuran-3-yl)methoxy)-4-methoxyphenyl)acetic acid], the IC50 was under 1000 nM.

`NCc1cccc(-c2ccc3occ(COc4cc(C(F)(F)F)ccc4CC(=O)O)c3c2)c1` [Compound 118d, 2-(2-((5-(3-(aminomethyl)phenyl)benzofuran-3-yl)methoxy)-4-(trifluoromethyl)phenyl)acetic acid]: the IC50 was under 1000 nM.

With `NCc1cccc(-c2cc(CO)cc3cc(COc4ccccc4CC(=O)O)oc23)c1` [Compound 29b, 2-(2-((7-(3-(aminomethyl)phenyl)-5-(hydroxymethyl)benzofuran-2-yl)methoxy)phenyl)acetic acid], the 50% inhibitory concentration (IC50) was under 1000 nM. `NCc1cccc(-c2cc(-c3cccc(CN)c3)c3oc(COc4ccccc4CC(=O)O)cc3c2)c1` [Compound 8e, 2-(2-((5,7-bis(3-(aminomethyl)phenyl)benzofuran-2-yl)methoxy)phenyl)acetic acid]: the half-inhibitory concentration (IC50) is under 1000 nM. For `CCCC(C(=O)O)c1ccccc1OCc1nn(C(C)C)c2ccc(-c3cccc(CN)c3)cc12` (centres unmarked) [Compound 246f, 2-(2-((5-(3-(aminomethyl)phenyl)-1-isopropyl-1H-indazol-3-yl)methoxy)phenyl)pentanoic acid] the value was 1000 to 10000 nM; for `CNc1cc(-c2cccc(CN)c2)cc2c(COc3ccccc3CC(=O)O)coc12` [Compound 152d, 2-(2-((5-(3-(aminomethyl)phenyl)-7-(methylamino)benzofuran-3-yl)methoxy)phenyl)acetic acid], under 1000 nM; for `CC(C)c1ccc(CC(=O)O)c(OCc2coc3ccc(-c4cccc(CN)c4)cc23)c1` [Compound 190f, 2-(2-((5-(3-(aminomethyl)phenyl)benzofuran-3-yl)methoxy)-4-isopropylphenyl)acetic acid], under 1000 nM. Consider `COc1ccc(CC(=O)O)c(OCc2coc3ccc(-c4ccnc(CN)c4F)cc23)c1` [Compound 71d, 2-(2-((5-(2-(aminomethyl)-3-fluoropyridin-4-yl)benzofuran-3-yl)methoxy)-4-methoxyphenyl)acetic acid], for which the 50% inhibitory concentration (IC50) is under 1000 nM. For `CCCCC(C(=O)O)c1ccccc1OCc1nn(C(C)C)c2ccc(-c3cccc(CN)c3)cc12` (centres unmarked) [Compound 312f, 2-(2-((5-(3-(aminomethyl)phenyl)-1-isopropyl-1H-indazol-3-yl)methoxy)phenyl)hexanoic acid], the IC50 lay within 1000 to 10000 nM. For `NCc1cccc(-c2cc(-c3cccc(CN)c3)c3occ(COc4ccccc4CC(=O)O)c3c2)c1` [Compound 189c, 2-(2-((5,7-bis(3-(aminomethyl)phenyl)benzofuran-3-yl)methoxy)phenyl)acetic acid] the value was under 1000 nM; for `NCc1cccc(-c2cccc3occ(COc4ccccc4CC(=O)O)c23)c1` [Compound 97h, 2-(2-((4-(3-(aminomethyl)phenyl)benzofuran-3-yl)methoxy)phenyl)acetic acid], over 10000 nM. As for `NCc1cccc(-c2cc(Cn3ccnc3)c3occ(COc4ccccc4CC(=O)O)c3c2)c1` [Compound 155e, 2-(2-((7-((1H-imidazol-1-yl)methyl)-5-(3-(aminomethyl)phenyl)benzofuran-3-yl)methoxy)phenyl)acetic acid], the IC50 is under 1000 nM. For `NCc1cccc(-c2ccc3occ(COc4cccc(F)c4CC(=O)O)c3c2)c1` [Compound 126f, 2-(2-((5-(3-(aminomethyl)phenyl)benzofuran-3-yl)methoxy)-6-fluorophenyl)acetic acid] the value was under 1000 nM; for `NCc1cccc(-c2ccc3c(c2)c(COc2ccccc2CC(=O)O)nn3C2CCCCC2)c1` [Compound 259c, 2-(2-((5-(3-(aminomethyl)phenyl)-1-cyclohexyl-1H-indazol-3-yl)methoxy)phenyl)acetic acid], under 1000 nM; for `CC(C)n1nc2ccc(-c3cccc(CN)c3)cc2c1COc1ccccc1CC(=O)O` [Compound 183e, 2-(2-((5-(3-(aminomethyl)phenyl)-2-isopropyl-2H-indazol-3-yl)methoxy)phenyl)acetic acid], under 1000 nM. For `NCc1cccc(-c2cc(-c3c[nH]c4ccccc34)c3occ(COc4ccccc4CC(=O)O)c3c2)c1` [Compound 136d, 2-(2-((5-(3-(aminomethyl)phenyl)-7-(1H-indol-3-yl)benzofuran-3-yl)methoxy)phenyl)acetic acid] the value was under 1000 nM; for `NCc1cccc(-c2ccc3oc(F)c(COc4ccccc4CC(=O)O)c3c2)c1` [Compound 204c, 2-(2-((5-(3-(aminomethyl)phenyl)-2-fluorobenzofuran-3-yl)methoxy)phenyl)acetic acid], under 1000 nM; for `NCc1cccc(-c2ccc3c(c2)c(COc2ccccc2CC(=O)O)nn3CC2CC2)c1` [Compound 258f, 2-(2-((5-(3-(aminomethyl)phenyl)-1-(cyclopropylmethyl)-1H-indazol-3-yl)methoxy)phenyl)acetic acid], under 1000 nM. Consider `CCCc1oc2ccc(-c3cccc(CN)c3)cc2c1COc1ccccc1CC(=O)O` [Compound 286c, 2-(2-((5-(3-(aminomethyl)phenyl)-2-propylbenzofuran-3-yl)methoxy)phenyl)acetic acid], for which the IC50 was under 1000 nM. For `NCc1cccc(-c2cc(OCCF)c3occ(COc4ccccc4CC(=O)O)c3c2)c1` [Compound 248f, 2-(2-((5-(3-(aminomethyl)phenyl)-7-(2-fluoroethoxy)benzofuran-3-yl)methoxy)phenyl)acetic acid] the value was under 1000 nM; for `CCOC(=O)Cc1ccccc1OCc1cc2c(-c3cccc(CN)c3)cccc2o1` [Compound 25c, ethyl 2-(2-((4-(3-(aminomethyl)phenyl)benzofuran-2-yl)methoxy)phenyl)acetate], over 10000 nM; for `COc1ccc(CC(=O)O)c(OCc2coc3c(NCC4CC4)cc(-c4cccc(CN)c4)cc23)c1` [Compound 276e, 2-(2-((5-(3-(aminomethyl)phenyl)-7-((cyclopropylmethyl)amino)benzofuran-3-yl)methoxy)-4-methoxyphenyl)acetic acid], under 1000 nM. For `NCc1cccc(-c2ccc3snc(COc4ccccc4CC(=O)O)c3c2)c1` [Compound 93e, 2-(2-((5-(3-(aminomethyl)phenyl)benzo[d]isothiazol-3-yl)methoxy)phenyl)acetic acid] the value was under 1000 nM; for `NCc1cccc(-c2cc(Cl)c3occ(COc4ccccc4CC(=O)O)c3c2)c1` [Compound 127f, 2-(2-((5-(3-(aminomethyl)phenyl)-7-chlorobenzofuran-3-yl)methoxy)phenyl)acetic acid], under 1000 nM; for `Cc1cc2c(o1)c(-c1cccc(CN)c1)cc1c(COc3ccccc3CC(=O)O)coc12` [Compound 283g, 2-(2-((5-(3-(aminomethyl)phenyl)-7-methylbenzo[1,2-b:3,4-b′]difuran-3-yl)methoxy)phenyl)acetic acid], under 1000 nM. Regarding `COc1ccc(CC(=O)O)c(OCc2c(F)oc3ccc(-c4cccc(CN)c4)cc23)c1` [Compound 172f, 2-(2-((5-(3-(aminomethyl)phenyl)-2-fluorobenzofuran-3-yl)methoxy)-4-methoxyphenyl)acetic acid], the IC50 was under 1000 nM. For `CC(C)(C)OC(=O)N(Cc1cc(-c2cccc(CN)c2)cc2c(COc3ccccc3CC(=O)O)coc12)CC(F)(F)F` [Compound 177g, 2-(2-((5-(3-(aminomethyl)phenyl)-7-(((tert-butoxycarbonyl)(2,2,2-trifluoroethyl)amino)methyl)benzofuran-3-yl)methoxy)phenyl)acetic acid] the value was under 1000 nM.
